The values that follow are results of earlier work, collected in patent publication US20050118265A1, “Antifungal oral dosage forms and the methods for preparation” (priority 2003, published 2005).

For orientation: pKa means the pH at which an ionisable group is half protonated.

For data set [1] the following is noted: based on extrapolation of values obtained from methanolic solutions.
For data set [2] the following is noted: pH 8.1.

On to `CCC(C)n1ncn(-c2ccc(N3CCN(c4ccc(OCC5COC(Cn6cncn6)(c6ccc(Cl)cc6Cl)O5)cc4)CC3)cc2)c1=O` (racemic) [Itraconazole, (±)-1-[(RS)-sec-butyl]-4-[p-[4-[p-[[(2R,4S)-2-(2,4-dichlorophenyl)-2-(1H-1,2,4-triazol-1-ylmethyl)-1,3-dioxolan-4-yl]methoxy]phenyl]-1-piperazinyl]phenyl]-Ä 2-1,2,4-triazolin-5-one], for which the pKa in data set [1] is recorded as 3.70. In addition, the “log (n-octanol/water) partition coefficient” value in data set [2] was 5.66. Moreover, the solubility in alcohol entry (alcohol) is reported as “very slightly soluble”. In addition, the solubility in dichloromethane entry (dichloromethane) is listed as “freely soluble”. Further, for the setting “ethanol alone”, the solubility in ethanol result was “poorly soluble”. In addition, the solubility in water entry (water) is “insoluble”.
